These molecules were tested on Utrophin A promoter linked to a luciferase reporter gene (assay: Luciferase reporter assay (murine H2K cells), H2K/mdx/Utro A reporter cell line). Details: 48 h; test compound concentration 10 μM; mdx mouse H2K Utrophin A reporter cells; read-out: Activity (luciferase level relative to control).
Assay type: cell-based
Experimental: Luciferase Reporter Assay (Murine H2K Cells)
The cell line used for the screen is an immortalized mdx mouse H2K cell line that has been stably transfected with a plasmid containing ≈5 kb fragment of the Utrophin A promoter including the first untranslated exon linked to a luciferase reporter gene.
Under conditions of low temperature and interferon containing media, the cells remain as myoblasts. These are plated into 96 well plates and cultured in the presence of compound for three days. The level of luciferase is then determined by cell lysis and reading of the light output from the expressed luciferase gene utilising a plate luminometer.
Luciferase Assay for 96 Well Plates
The H2K/mdx/Utro A reporter cell line cells were plated out into 96 well plates (Falcon 353296, white opaque) at a density of approximately 5000 cells/well in 190 μl normal growth medium. The plates were then incubated at 33° C. in the presence of 10% CO2 for 24 hrs.
Compounds were dosed by adding 10 μl of diluted compound to each well giving a final concentration of 10 μM (where a different final concentration was required, the amount of compound solution added was amended accordingly). The plates were then incubated for a further 48 hrs. Cells were then lysed in situ following the manufacture's protocols (Promega Steady-Glo Luciferase Assay System(E2520). Then counted for 10 seconds using a plate luminometer (Victor1420).
Compounds for screening were stored at −20° C. as 10 mM stocks in 100% DMSO until required.
Biological activity as assessed using the luciferase reporter assay in murine H2K cells, and the results are shown in Table 1, which also lists the concentration of the test compound solution in μM.

Q: `CON(C)S(=O)(=O)c1ccc(Cn2nc(C(=O)Nc3nc4ccccc4s3)c3ccccc32)cc1` [Compound 1, N-(benzo[d]thiazol-2-yl)-1-(4-(N-methoxy-N-methylsulfamoyl)benzyl)-1H-indazole-3-carboxamide] was tested. Which activity at 10 µM did it give?
A: The activity at 10 µM was under 200%.

Q: For `COc1ccc(OC)c(NC(=O)Nc2nn(Cc3ccc(COc4ccc5c(c4)OCO5)cc3)c3ccc(C(F)(F)F)cc23)c1` [Compound 2, 1-(1-(4-((benzo[d][1,3]dioxol-5-yloxy)methyl)benzyl)-5-(trifluoromethyl)-1H-indazol-3-yl)-3-(2,5-dimethoxyphenyl)urea], which activity at 10 µM is on record?
A: The activity at 10 µM was under 200%.

Q: How did the activity at 10 µM turn out when `CS(=O)(=O)c1ccc(Cn2nc(C(=O)Nc3nccs3)c3ccccc32)cc1` [Compound 3, 1-(4-(methylsulfonyl)benzyl)-N-(thiazol-2-yl)-1H-indazole-3-carboxamide] was run?
A: Its activity at 10 µM is under 200%.

Q: With `CS(=O)(=O)c1ccc(Cn2nc(C(=O)Nc3ccc4c(c3)OCO4)c3ccccc32)cc1` [Compound 4, N-(benzo[d][1,3]dioxol-5-yl)-1-(4-(methylsulfonyl)benzyl)-1H-indazole-3-carboxamide] as the molecule, how does the activity at 10 µM read?
A: Its activity at 10 µM is 301 to 400%.

Q: `COc1ccc(NC(=O)c2nn(CCCOc3ccccc3)c3ccccc23)cc1` [Compound 5, N-(4-methoxyphenyl)-1-(3-phenoxypropyl)-1H-indazole-3-carboxamide] was tested. Which activity at 10 µM did it give?
A: The activity at 10 µM was under 200%.

Q: Which activity at 10 µM does the source give for `C#CCN(C)S(=O)(=O)c1ccc(Cn2nc(C(=O)Nc3ccc(N4CCCCC4)cc3)c3ccccc32)cc1` [Compound 6, 1-(4-(N-methyl-N-(prop-2-ynyl)sulfamoyl)benzyl)-N-(4-(piperidin-1-yl)phenyl)-1H-indazole-3-carboxamide] here?
A: The activity at 10 µM was 301 to 400%.

Q: How did the activity at 10 µM turn out when `CCN(CC)S(=O)(=O)c1ccc(Cn2nc(C(=O)Nc3nc4ccccc4s3)c3ccccc32)cc1` [Compound 7, N-(benzo[d]thiazol-2-yl)-1-(4-(N,N-diethylsulfamoyl)benzyl)-1H-indazole-3-carboxamide] was run?
A: Its activity at 10 µM is under 200%.

Q: With `COc1ccc2c(c1)c(C(=O)Nc1ccc(N3CCCCC3)cc1)nn2Cc1ccc(S(=O)(=O)N(C)OC)cc1` [Compound 8, 5-methoxy-1-(4-(N-methoxy-N-methylsulfamoyl)benzyl)-N-(4-(piperidin-1-yl)phenyl)-1H-indazole-3-carboxamide] as the molecule, how does the activity at 10 µM read?
A: The activity at 10 µM was under 200%.

Q: `O=C(Nc1cccc(F)c1)Nc1nn(Cc2ccc(COc3ccc4c(c3)OCO4)cc2)c2ccc(C(F)(F)F)cc12` [Compound 9, 1-(1-(4-((benzo[d][1,3]dioxol-5-yloxy)methyl)benzyl)-5-(trifluoromethyl)-1H-indazol-3-yl)-3-(3-fluorophenyl)urea] was tested. Which activity at 10 µM did it give?
A: The activity at 10 µM was under 200%.

Q: For `CCN(CC)S(=O)(=O)c1ccc(Cn2nc(C(=O)Nc3ccc(N4CCCCC4)cc3)c3ccccc32)cc1` [Compound 10, 1-(4-(N,N-diethylsulfamoyl)benzyl)-N-(4-(piperidin-1-yl)phenyl)-1H-indazole-3-carboxamide], which activity at 10 µM is on record?
A: Its activity at 10 µM is 201 to 300%.

Q: `COC(=O)c1ccc(NC(=O)Nc2nn(Cc3ccc(COc4cccc(OC)c4)cc3)c3ccccc23)cc1` [Compound 11, methyl 4-(3-(1-(4-((3-methoxyphenoxy)methyl)benzyl)-1H-indazol-3-yl)ureido)benzoate] was tested. Which activity at 10 µM did it give?
A: Its activity at 10 µM is under 200%.

Q: How did the activity at 10 µM turn out when `COc1cccc(OC)c1NC(=O)Nc1nn(Cc2ccc(C(F)(F)F)cc2)c2ccccc12` [Compound 12, 1-(2,6-dimethoxyphenyl)-3-(1-(4-(trifluoromethyl)benzyl)-1H-indazol-3-yl)urea] was run?
A: Its activity at 10 µM is under 200%.

Q: `Cc1ccc2c(c1)c(NC(=O)Nc1ccccc1C(C)C)nn2Cc1cc2c(cc1Cl)OCO2` [Compound 13, 1-(1-((6-chlorobenzo[d][1,3]dioxol-5-yl)methyl)-5-methyl-1H-indazol-3-yl)-3-(2-isopropylphenyl)urea] was tested. Which activity at 10 µM did it give?
A: The activity at 10 µM was under 200%.

Q: `O=C(Nc1ccc(N2CCCCC2)cc1)c1nn(CCCOc2ccccc2)c2ccccc12` [Compound 14, 1-(3-phenoxypropyl)-N-(4-(piperidin-1-yl)phenyl)-1H-indazole-3-carboxamide] was tested. Which activity at 10 µM did it give?
A: The activity at 10 µM was 301 to 400%.

Q: For `Cc1cccc(NC(=O)Nc2nn(Cc3ccc(C(F)(F)F)cc3)c3ccccc23)c1` [Compound 15, 1-m-tolyl-3-(1-(4-(trifluoromethyl)benzyl)-1H-indazol-3-yl)urea], which activity at 10 µM is on record?
A: The activity at 10 µM was under 200%.

Q: With `O=C(Nc1nccs1)c1nn(CCCOc2ccccc2)c2ccccc12` [Compound 16, 1-(3-phenoxypropyl)-N-(thiazol-2-yl)-1H-indazole-3-carboxamide] as the molecule, how does the activity at 10 µM read?
A: The activity at 10 µM was over 401%.

Q: `O=C(Nc1nc2ccccc2s1)c1nn(Cc2ccc(C(=O)N3CCOCC3)cc2)c2ccccc12` [Compound 17, N-(benzo[d]thiazol-2-yl)-1-(4-(morpholine-4-carbonyl)benzyl)-1H-indazole-3-carboxamide] was tested. Which activity at 10 µM did it give?
A: Its activity at 10 µM is 201 to 300%.

Q: `CS(=O)(=O)c1ccc(Cn2nc(C(=O)Nc3ccc(N4CCCCC4)cc3)c3ccccc32)cc1` [Compound 18, 1-(4-(methylsulfonyl)benzyl)-N-(4-(piperidin-1-yl)phenyl)-1H-indazole-3-carboxamide] was tested. Which activity at 10 µM did it give?
A: The activity at 10 µM was 201 to 300%.

Q: For `CC(C)c1ccc(NC(=O)c2nn(Cc3ccc(C(=O)N4CCOCC4)cc3)c3ccccc23)cc1` [Compound 19, N-(4-isopropylphenyl)-1-(4-(morpholine-4-carbonyl)benzyl)-1H-indazole-3-carboxamide], which activity at 10 µM is on record?
A: Its activity at 10 µM is over 401%.

Q: `CN(Cc1ccccc1)C(=O)c1ccc(Cn2nc(C(=O)Nc3ccc(C(F)(F)F)cc3)c3ccccc32)cc1` [Compound 20, 1-(4-(benzyl(methyl)carbamoyl)benzyl)-N-(4-(trifluoromethyl)phenyl)-1H-indazole-3-carboxamide] was tested. Which activity at 10 µM did it give?
A: The activity at 10 µM was under 200%.

Q: How did the activity at 10 µM turn out when `C#CCN(C)S(=O)(=O)c1ccc(Cn2nc(C(=O)Nc3ccc4c(c3)OCO4)c3ccccc32)cc1` [Compound 21, N-(benzo[d][1,3]dioxol-5-yl)-1-(4-(N-methyl-N-(prop-2-ynyl)sulfamoyl)benzyl)-1H-indazole-3-carboxamide] was run?
A: The activity at 10 µM was over 401%.

Q: `CC(C)c1ccc(NC(=O)c2nn(Cc3ccc(C(=O)N(C)Cc4ccccc4)cc3)c3ccccc23)cc1` [Compound 22, 1-(4-(benzyl(methyl)carbamoyl)benzyl)-N-(4-isopropylphenyl)-1H-indazole-3-carboxamide] was tested. Which activity at 10 µM did it give?
A: The activity at 10 µM was under 200%.

Q: How did the activity at 10 µM turn out when `CS(=O)(=O)c1ccc(Cn2nc(C(=O)Nc3ccc(OC(F)(F)F)cc3)c3ccccc32)cc1` [Compound 23, 1-(4-(methylsulfonyl)benzyl)-N-(4-(trifluoromethoxy)phenyl)-1H-indazole-3-carboxamide] was run?
A: The activity at 10 µM was under 200%.

Q: Which activity at 10 µM does the source give for `CN(c1ccccc1)S(=O)(=O)c1ccc(Cn2nc(C(=O)NOCc3ccccc3)c3ccccc32)cc1` [Compound 24, N-(benzyloxy)-1-(4-(N-methyl-N-phenylsulfamoyl)benzyl)-1H-indazole-3-carboxamide] here?
A: The activity at 10 µM was under 200%.

Q: `O=C(Nc1ccc2c(c1)OC(F)(F)O2)c1nn(Cc2ccc(C(=O)N3CCOCC3)cc2)c2ccccc12` [Compound 25, N-(2,2-difluorobenzo[d][1,3]dioxol-5-yl)-1-(4-(morpholine-4-carbonyl)benzyl)-1H-indazole-3-carboxamide] was tested. Which activity at 10 µM did it give?
A: The activity at 10 µM was over 401%.

Q: How did the activity at 10 µM turn out when `CC(C)c1ccc(NC(=O)c2nn(CCOc3ccccc3)c3ccccc23)cc1` [Compound 26, N-(4-isopropylphenyl)-1-(2-phenoxyethyl)-1H-indazole-3-carboxamide] was run?
A: Its activity at 10 µM is under 200%.

Q: For `CC(C)c1ccc(NC(=O)c2nn(Cc3ccc(-c4ccccc4)cc3)c3ccccc23)cc1` [Compound 27, 1-(biphenyl-4-ylmethyl)-N-(4-isopropylphenyl)-1H-indazole-3-carboxamide], which activity at 10 µM is on record?
A: Its activity at 10 µM is under 200%.

Q: With `COc1cccc(OCc2ccc(Cn3nc(NC(=O)NCc4ccccc4F)c4ccccc43)cc2)c1` [Compound 28, 1-(2-fluorobenzyl)-3-(1-(4-((3-methoxyphenoxy)methyl)benzyl)-1H-indazol-3-yl)urea] as the molecule, how does the activity at 10 µM read?
A: The activity at 10 µM was 201 to 300%.

Q: For `O=C(Nc1ccccc1C(F)(F)F)Nc1nn(Cc2ccc(COc3ccc4c(c3)OCO4)cc2)c2ccc(C(F)(F)F)cc12` [Compound 29, 1-(1-(4-((benzo[d][1,3]dioxol-5-yloxy)methyl)benzyl)-5-(trifluoromethyl)-1H-indazol-3-yl)-3-(2-(trifluoromethyl)phenyl)urea], which activity at 10 µM is on record?
A: The activity at 10 µM was under 200%.

Q: For `COc1cccc(OCc2ccc(Cn3nc(NC(=O)Nc4ccc5c(c4)CCC5)c4ccccc43)cc2)c1` [Compound 30, 1-(2,3-dihydro-1H-inden-5-yl)-3-(1-(4-((3-methoxyphenoxy)methyl)benzyl)-1H-indazol-3-yl)urea], which activity at 10 µM is on record?
A: Its activity at 10 µM is under 200%.

Q: With `COc1ccc(NC(=O)Nc2nn(Cc3ccc(COc4ccc5c(c4)OCO5)cc3)c3ccc(C(F)(F)F)cc23)c(OC)c1` [Compound 31, 1-(1-(4-((benzo[d][1,3]dioxol-5-yloxy)methyl)benzyl)-5-(trifluoromethyl)-1H-indazol-3-yl)-3-(2,4-dimethoxyphenyl)urea] as the molecule, how does the activity at 10 µM read?
A: Its activity at 10 µM is under 200%.

Q: `Cc1cccc(CNC(=O)Nc2nn(Cc3cc4c(cc3Cl)OCO4)c3ccccc23)c1` [Compound 32, 1-(1-((6-chlorobenzo[d][1,3]dioxol-5-yl)methyl)-1H-indazol-3-yl)-3-(3-methylbenzyl)urea] was tested. Which activity at 10 µM did it give?
A: The activity at 10 µM was under 200%.

Q: `O=C(Nc1nn(Cc2ccc(CN3C(=O)CCC3=O)cc2)c2ccccc12)c1cnc2ccccc2n1` [Compound 33, N-(1-(4-((2,5-dioxopyrrolidin-1-yl)methyl)benzyl)-1H-indazol-3-yl)quinoxaline-2-carboxamide] was tested. Which activity at 10 µM did it give?
A: Its activity at 10 µM is under 200%.

Reference: US20100305120A1, “COMPOUNDS FOR TREATING MUSCULAR DYSTROPHY” (BIOMARIN IGA LIMITED, priority 2008, published 2010)
